From patent USRE49128E1, “Hydroxyl purine compounds and applications thereof” (GUANGDONG RAYNOVENT BIOTECH CO., LTD., priority 2014, dated 2022)

Legend:
[1] = molecular target: T1, recombinant full-length PDE2A protein (Homo sapiens, UniProt O00408); assay: Evaluation of PDE2 phosphodiesterase inhibitory activity in vitro (fluorescence polarization, Transcreener AMP2/GMP2); format: biochemical; details: IC50 classes; substrate 1 μM cGMP; room temperature one hour
T1 construct: Expression of recombinant full-length PDE2A protein in insect Sf9 cells; GST (N); made in house; host or cells: insect Sf9 cells (baculovirus)
Description: Experimental objective: The substituted Alexa Fluor 633 fluorescent dye on the AMP/GMP antibodies was detected by the fluorescence polarization analysis to determine the concentration of AMP/GMP produced in the reaction system, which was used to calculate the IC50 values of the test compounds against PDE2 phosphodiesterase.
The measured buffer solution: 10 mM Tris-HCl, pH 7.5, 5 mM MgCl2, 0.01% Brij 35, 1 mM DTT, and 1% DMSO.
Enzyme: Expression of recombinant full-length PDE2A protein in insect Sf9 cells using N-terminal GST-tag with baculovirus.
Transcreener® AMP^2/GMP^2 antibody, AMP2/GMP2 AlexaFluor 633 fluorescent dye.
The enzyme solution was prepared using freshly prepared buffer solution, and then added to the reaction holes, the DMSO solutions of the test compounds were added by the Echo550 non-contact nanoliter acoustic pipetting system, and then pre-incubated at room temperature for 10 minutes, the reaction was initiated by the addition of the substrate (1 μM cGMP), and then reacted at room temperature for one hour. And then the detection system (Transcreener® AMP^2/GMP^2 antibody, AMP2/GMP2 AlexaFluor 633 fluorescent dye) was added, reacted at room temperature for 90 minutes, the fluorescence polarization was detected using Ex/Em 620/688.
The fluorescence polarization intensity was converted to nM concentration by AMP/GMP standard curve, The relative enzyme activity relative to DMSO blank was calculated, IC50 values and curves were calculated using Prism software packages (GraphPad Software, San Diego Calif., USA).

[2] = Pharmacokinetic evaluation of compounds in SD rats; format: in vivo, Sprague Dawley rats; details: single intravenous injection and oral administration; for bioavailability / clearance / AUC / half-life: male, Sprague-Dawley, rat, plasma; for bioavailability: read-out: Bioavailability F; for clearance: read-out: Clearance rate; for AUC: read-out: Concentration integration AUC; for half-life: read-out: Half-life T1/2 (converted)
Description: Experimental objective: The pharmacokinetics of test compounds in SD rats.
Sprague Dawley rats (male, 200-300 g, 7-9 weeks old, Shanghai Slack).
The pharmacokinetic characteristics of rodents after intravenous and oral administration of the compounds were tested according to the standard protocol, in the experiment, the candidate compound was formulated into a clear solution, and the rats were given single intravenous injection and oral administration. Intravenous and oral solvents are a certain proportion of hydroxypropyl βcyclodextrin aqueous solution or physiological saline solution. Blood samples within 24 hours were collected, centrifuged (3000 g) for 15 minutes, the supernatant were separated to obtain the plasma samples, the protein was precipitated by adding a 4 times volume of acetonitrile solution that containing the internal standard, centrifuged and the supernatant was then centrifuged after adding equal volume of water, then the supernatant was injected, the plasma concentration was quantitatively analyzed by LC-MS/MS analysis, and pharmacokinetics parameters such as peak concentration, peak time, clearance rate, half-life, drug area under the curve, bioavailability etc. are calculated.

T1 sequence (O00408 whole entry, species assumed): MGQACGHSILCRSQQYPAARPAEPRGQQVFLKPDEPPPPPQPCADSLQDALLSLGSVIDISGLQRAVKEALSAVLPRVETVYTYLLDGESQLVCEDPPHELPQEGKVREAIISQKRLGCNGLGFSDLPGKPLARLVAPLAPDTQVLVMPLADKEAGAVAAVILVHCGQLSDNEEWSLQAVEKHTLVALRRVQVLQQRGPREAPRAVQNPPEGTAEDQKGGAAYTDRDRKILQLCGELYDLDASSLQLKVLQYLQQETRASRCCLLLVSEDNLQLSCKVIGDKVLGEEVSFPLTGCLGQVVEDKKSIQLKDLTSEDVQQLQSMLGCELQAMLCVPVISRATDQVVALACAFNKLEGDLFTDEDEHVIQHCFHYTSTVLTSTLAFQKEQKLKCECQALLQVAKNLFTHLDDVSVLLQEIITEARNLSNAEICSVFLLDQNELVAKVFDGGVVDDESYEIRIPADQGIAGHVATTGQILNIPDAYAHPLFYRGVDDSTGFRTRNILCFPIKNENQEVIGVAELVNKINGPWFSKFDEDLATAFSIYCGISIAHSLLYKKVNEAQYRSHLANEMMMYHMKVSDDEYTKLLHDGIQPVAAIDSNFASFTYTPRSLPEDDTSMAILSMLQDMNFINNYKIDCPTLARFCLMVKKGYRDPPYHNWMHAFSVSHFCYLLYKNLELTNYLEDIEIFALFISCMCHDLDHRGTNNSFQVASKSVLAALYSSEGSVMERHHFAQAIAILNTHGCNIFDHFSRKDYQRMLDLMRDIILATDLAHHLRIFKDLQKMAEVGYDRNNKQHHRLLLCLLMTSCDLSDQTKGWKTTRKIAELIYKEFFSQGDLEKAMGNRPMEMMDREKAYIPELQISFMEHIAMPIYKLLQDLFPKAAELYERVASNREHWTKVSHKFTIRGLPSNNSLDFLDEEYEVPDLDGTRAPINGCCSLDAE

IC50 [1] | Compound | further results
1 to 10 µM | 3,7-Dimethyl-1-[[3-[2,2,2-trifluoro-1-hydroxy-1-(trifluoromethyl)ethyl]cyclobutyl]methyl]purine-2,6-dione [Embodiment 8 isomer 1] | 
10 to 50 µM | 3,7-Dimethyl-1-[[3-[2,2,2-trifluoro-1-hydroxy-1-(trifluoromethyl)ethyl]cyclobutyl]methyl]purine-2,6-dione [Embodiment 8 isomer 2] | 
10 to 50 µM | Cn1cnc2c1c(=O)n(CC1CC(C(C)(O)C(F)(F)F)C1)c(=O)n2C (single isomer, unassigned) [Embodiment 9 isomer 1] | 
1 to 10 µM | Cn1cnc2c1c(=O)n(CC1CCC(O)(C(F)(F)F)CC1)c(=O)n2C (single isomer, unassigned) [Embodiment 12 isomer 2] | bioavailability [2]: 34.1%; clearance [2]: 2.46 L/h/kg; AUC [2]: 3.85 µM·h; half-life [2]: 1.6 h
1 to 10 µM | Cn1cnc2c1c(=O)n(CCC1CCC(O)(C(F)(F)F)CC1)c(=O)n2C (single isomer, unassigned) [Embodiment 15 isomer 1] | 
10 to 50 µM | Cn1c(=O)n(CC2CCC(C)(O)CC2)c(=O)c2c1ncn2CC(F)(F)F (single isomer, unassigned) [Embodiment 46 isomer 2] | 
10 to 50 µM | Cn1c(=O)n(CC2CCC(O)(C(F)(F)F)CC2)c(=O)c2c1ncn2CC1CC1 (single isomer, unassigned) [Embodiment 50 isomer 1, 7-(Cyclopropylmethyl)-1-((4-hydroxy-4-(trifluoromethyl)cyclohexyl)methyl)-3-methyl-1H-purine-2,6(3H,7H)-dione] | 
10 to 50 µM | Cn1c(=O)n(CC2CCC(C)(O)CC2)c(=O)c2c1ncn2CC1CC1 (single isomer, unassigned) [Embodiment 51 isomer 1] | 
 | CC(C)Cn1cnc2c1c(=O)n(CC1CCC(O)(C(F)(F)F)CC1)c(=O)n2C (single isomer, unassigned) [Embodiment 58 isomer 2, 1-((4-Hydroxy-4-(trifluoromethyl)cyclohexyl)methyl)-7-isobutyl-3-methyl-1H-purine-2,6(3H,7H)-dione] | bioavailability [2]: 42.6%; clearance [2]: 4.3 L/h/kg; AUC [2]: 2.49 µM·h; half-life [2]: 0.56 h
10 to 50 µM | Cn1cnc2c1c(=O)n(CCCCC1(O)CC1)c(=O)n2C [Embodiment 3, 1-(4-(1-Hydroxycyclopropyl)butyl)-3,7-dimethyl-1H-purine-2,6(3H,7H)-dione] | 
1 to 10 µM | Cn1cnc2c1c(=O)n(CC1(C(C)(O)C(F)(F)F)CC1)c(=O)n2C (centres unmarked) [Embodiment 4, 3,7-Dimethyl-1-((1-(1,1,1-trifluoro-2-hydroxypropan-2-yl)cyclopropyl)methyl)-1H-purine-2,6-(3H,7H)-dione] | 
10 to 50 µM | Cn1cnc2c1c(=O)n(CC1CC(O)(C(F)(F)F)C1)c(=O)n2C (centres unmarked) [Embodiment 5] | 
 | Cn1cnc2c1c(=O)n(C[C@H]1CC[C@](O)(C(F)(F)F)CC1)c(=O)n2C [Embodiment 12, 1-(((1S,4S)-4-Hydroxy-4-(trifluoromethyl)cyclohexyl)methyl)-3,7-dimethyl-1H-purine-2,6(3H,7H)-dione] | Bioavailability F [2]: 41.2%; Clearance rate [2]: 1.96 L/h/kg; Concentration integration AUC [2]: 5.863 µM·h; Half-life T1/2 [2]: 3.12 h
1 to 10 µM | CCC(O)(CC)C1CCC(Cn2c(=O)c3c(ncn3C)n(C)c2=O)CC1 (centres unmarked) [Embodiment 18, 1-((4-(3-Hydroxypentan-3-yl)-cyclohexyl)methyl)-3,7-dimethyl-1H-purine-2,6(3H,7H)-dione] | 
10 to 50 µM | Cn1cnc2c1c(=O)n(C[C@H]1CC[C@H](C(C)(O)C(F)(F)F)CC1)c(=O)n2C (stereo partly drawn) [Embodiment 19, 3,7-Dimethyl-1-[[trans-4-(2,2,2-trifluoro-1-hydroxy-1-methyl-ethyl)cyclohexyl]methyl]purine-2,6-dione] | 
10 to 50 µM | Cn1cnc2c1c(=O)n(C[C@H]1CC[C@H](C(O)(C(F)(F)F)C(F)(F)F)CC1)c(=O)n2C [Embodiment 20, 3,7-Dimethyl-1-[trans-4-(2,2,2-trifluoro-1-hydroxy-1-trifluoromethyl-ethyl)cyclohexylmethyl]-3,7-dihydro-purine-2,6-dione] | 
10 to 50 µM | Cn1cnc2c1c(=O)n(C[C@H]1CC[C@H](C3(O)CC3)CC1)c(=O)n2C [Embodiment 21, 1-[[trans-4-(1-hydroxycyclopropyl)cyclohexyl]methyl]-3,7-dimethylpurine-2,6-dione] | 

IC50 [1] | Compound | further results
1 to 10 µM | CCC1(O)CCCC(CCn2c(=O)c3c(ncn3C)n(C)c2=O)C1 (centres unmarked) [Embodiment 22, 1-(2-(3-Ethyl-3-hydroxycyclohexyl)ethyl)-3,7-dimethyl-1H-purine-2,6(3H,7H)-dione] | 
1 to 10 µM | CCC(O)(CC)c1ccc(Cn2c(=O)c3c(ncn3C)n(C)c2=O)cc1 [Embodiment 25, 1-(4-(3-Hydroxypentan-3-yl)benzyl)-3,7-dimethyl-1H-purine-2,6(3H,7H)-dione] | 
10 to 50 µM | Cn1cnc2c1c(=O)n(Cc1cccc(C(C)(O)C(F)(F)F)c1)c(=O)n2C (centres unmarked) [Embodiment 26, 3,7-dimethyl-1-(3-(1,1,1-trifluoro-2-hydroxypropan-2-yl)benzyl)-1H-purine-2,6-(3H,7H)-dione] | 
10 to 50 µM | Cn1cnc2c1c(=O)n(Cc1cc(C(O)(C(F)(F)F)C(F)(F)F)no1)c(=O)n2C [Embodiment 31] | 
10 to 50 µM | Cn1cnc2c1c(=O)n(Cc1csc(C(C)(O)C(F)(F)F)n1)c(=O)n2C (centres unmarked) [Embodiment 33, 3,7-Dimethyl-1-((2-(1,1,1-trifluoro-2-hydroxypropan-2-yl)thiazol-4-yl)methyl)-1H-purine-2,6-(3H,7H)-dione] | 
10 to 50 µM | Cc1sc(C(C)(O)C(F)(F)F)nc1Cn1c(=O)c2c(ncn2C)n(C)c1=O (centres unmarked) [Embodiment 34] | 
10 to 50 µM | Cn1cnc2c1c(=O)n(Cc1cnc(C(C)(O)C(F)(F)F)s1)c(=O)n2C (centres unmarked) [Embodiment 35, 3,7-Dimethyl-1-((2-(1,1,1-trifluoro-2-hydroxypropan-2-yl)thiazol-5-yl)methyl)-1H-purine-2,6-(3H,7H)-dione] | 
10 to 50 µM | Cc1nc(C(C)(O)C(F)(F)F)sc1CCn1c(=O)c2c(ncn2C)n(C)c1=O (centres unmarked) [Embodiment 36, 3,7-Dimethyl-1-(2-(4-methyl-2-(1,1,1-trifluoro-2-hydroxypropan-2-yl)thiazol-5-yl)ethyl)-1H-purine-2,6-(3H,7H)-dione] | 
1 to 10 µM | CCn1cnc2c1c(=O)n(CCCCC(O)(CC)CC)c(=O)n2C [Embodiment 42, 7-Ethyl-1-(5-ethyl-5-hydroxyheptyl)-3-methyl-1H-purine-2,6(3H,7H)-dione] | 
10 to 50 µM | CCn1cnc2c1c(=O)n(CCCCC(C)(O)C(F)(F)F)c(=O)n2C (centres unmarked) [Embodiment 43, 7-Ethyl-3-methyl-1-(6,6,6-trifluoro-5-hydroxy-5-methylhexyl)-1H-purine-2,6(3H,7H)-dione] | 
10 to 50 µM | Cn1c(=O)n(CCCCC(C)(O)C(F)(F)F)c(=O)c2c1ncn2C1CC1 (centres unmarked) [Embodiment 47, 7-Cyclopropyl-3-methyl-1-(6,6,6-trifluoro-5-hydroxy-5-methylhexyl)-1H-purine-2,6(3H,7H)-dione] | 
10 to 50 µM | CC(C)n1cnc2c1c(=O)n(CC1CCC(O)(C(F)(F)F)CC1)c(=O)n2C (centres unmarked) [Embodiment 48] | 
10 to 50 µM | COCC1(Cn2c(=O)c3c(ncn3CC3CC3)n(C)c2=O)CCC(O)(C(F)(F)F)CC1 (centres unmarked) [Embodiment 52] | 
10 to 50 µM | Cn1c(=O)n(CC2(C)CCC(O)(C(F)(F)F)CC2)c(=O)c2c1ncn2CC1CC1 (centres unmarked) [Embodiment 53] | 
1 to 10 µM | Cc1sc(C(C)(O)C(F)(F)F)nc1Cn1c(=O)c2c(ncn2CC2CC2)n(C)c1=O (centres unmarked) [Embodiment 54, 7-(Cyclopropylmethyl)-3-methyl-1-((5-methyl-2-(1,1,1-trifluoro-2-hydroxypropan-2-yl)thiazol-4-yl)methyl)-1H-purine-2,6-(3H,7H)-dione] | 
10 to 50 µM | Cn1c(=O)n(Cc2ccc(C(C)(O)C(F)(F)F)cn2)c(=O)c2c1ncn2CC1CC1 (centres unmarked) [Embodiment 56] | 
1 to 10 µM | CC(C)Cn1cnc2c1c(=O)n(CC1CCC(O)(C(F)(F)F)CC1)c(=O)n2C (centres unmarked) [Embodiment 57, 1-((4-Hydroxy-4-(trifluoromethyl)cyclohexyl)methyl)-7-isobutyl-3-methyl-1H-purine-2,6(3H,7H)-dione] | 
